Data set [1] in a line: Crystallization and slurry experiments, morphic forms of Compound II (XRPD, characterization). It is filed as physicochemical. The note with it: morphic forms (XRPD patterns) of Compound II. The method, then:
Eleven unique XRPD patterns (Form A-Form K) of Compound II were obtained from crystallization and slurry experiments using various solvents.
Forms A, B, and D were evaluated as solid state forms.

The nature of data set [2]: Solubility estimate by aliquot addition with visual observation. It counts as physicochemical. The method, then:
Solubility estimates of impure Form B were attempted in various predominantly HCl acidic aqueous acetone solvent mixtures using an aliquot addition method that involved visual observation. Aliquots of various solvents or diluent/organic solvent mixtures were added to measured amounts of impure Form B with agitation (typically sonication) at ambient temperature until complete dissolution was achieved, as judged by visual observation. Solubilities were calculated based on the total solvent used to give a solution; actual solubilities may be greater because of the volume of solvent portions utilized or a slow rate of dissolution. […] If dissolution occurred at the first aliquot, the value was reported as “>”. Due to the haziness of the obtained samples, effective solubility estimates were difficult to discern.

The mark [3] stands for this setting: 0.1M HCl:acetone 20:80, ambient.
Setting [4] is: 0.5M HCl:acetone 10:90, ambient.
[5] abbreviates: 0.5M HCl:acetone 20:80, ambient.
Where [6] appears, read: 1.0M HCl:acetone 75:25, ambient.

The values below come from patent US11357779B2 (G1 Therapeutics, Inc., priority 2018, dated 2022).

A word on the Solubility: it is how much of the substance goes into solution per volume.

Each structure is given as a SMILES string. Where only a bound is given, the exact number is not on record here.

Turning to `CC(C)N1CCN(c2ccc(Nc3ncc4cc5n(c4n3)C3(CCCCC3)CNC5=O)nc2)CC1.Cl.Cl` [A], the “Possible Form” value in data set [1] was “Hydrate”.
The same measure, in the same setting: the same measure for `CC(C)N1CCN(c2ccc(Nc3ncc4cc5n(c4n3)C3(CCCCC3)CNC5=O)nc2)CC1.Cl.Cl` [B]: “Hydrate”.
Still for that read-out and setting: the same measure for `CC(C)N1CCN(c2ccc(Nc3ncc4cc5n(c4n3)C3(CCCCC3)CNC5=O)nc2)CC1.Cl.Cl` [C]: “EtOAc”; for `CC(C)N1CCN(c2ccc(Nc3ncc4cc5n(c4n3)C3(CCCCC3)CNC5=O)nc2)CC1.Cl.Cl` [D]: “Hydrate”; for `CC(C)N1CCN(c2ccc(Nc3ncc4cc5n(c4n3)C3(CCCCC3)CNC5=O)nc2)CC1.Cl.Cl` [E]: “Acetone”.
On the same count and under the same terms, the same measure for `CC(C)N1CCN(c2ccc(Nc3ncc4cc5n(c4n3)C3(CCCCC3)CNC5=O)nc2)CC1.Cl.Cl` [F]: “Unstable”.
With `CC(C)N1CCN(c2ccc(Nc3ncc4cc5n(c4n3)C3(CCCCC3)CNC5=O)nc2)CC1.Cl.Cl` [G], the “Possible Form” value in data set [1] is “Anhydrate”.
With `CC(C)N1CCN(c2ccc(Nc3ncc4cc5n(c4n3)C3(CCCCC3)CNC5=O)nc2)CC1.Cl.Cl` [H], in data set [1], the “Possible Form” value is reported as “n-PrOH”.
Take `CC(C)N1CCN(c2ccc(Nc3ncc4cc5n(c4n3)C3(CCCCC3)CNC5=O)nc2)CC1.Cl.Cl` [impure Form B]: the Observation result in data set [2] (setting [3]) is given as “solids remained”; in data set [2] (setting [4]), “solids remained”; in data set [2] (setting [5]), “solids remained”; in data set [2] (1M HCl:acetone 5:95, ambient), “solids remained”; in data set [2] (1M HCl:acetone 10:90, ambient), “solids remained”; in data set [2] (1M HCl:acetone 20:80, ambient), “solids remained”. For the same compound, the Observation result in data set [2] (1M HCl:acetone 33:67, ambient) is recorded as “hazy solution”; in data set [2] (1M HCl:acetone 50:50, ambient) it was “hazy solution”; in data set [2] (1M HCl:acetone 60:40, ambient) it was “hazy solution”; in data set [2] (1M HCl:acetone 67:33, ambient) it was “hazy solution”; in data set [2] (setting [6]), “hazy solution”; in data set [2] (2.0M HCl, ambient) it was “hazy solution”. The Observation entry is “hazy solution” in data set [2] (5.0M HCl, ambient); “clear solution” in data set [2] (5.0M HCl:water 1:2, ambient); “solids remained” in data set [2] (Water, ambient); “hazy solution” in data set [2] (Water:acetone 1:2, ambient); “solids remained” in data set [2] (Water:acetone 3:1, ambient). Besides, the Solubility in data set [2] (setting [3]) is <1000 µg/mL; in data set [2] (setting [4]), <1000 µg/mL; in data set [2] (setting [5]), <1000 µg/mL; in data set [2] (1M HCl:acetone 5:95, ambient) it was <1000 µg/mL; in data set [2] (1M HCl:acetone 10:90, ambient), <1000 µg/mL; in data set [2] (1M HCl:acetone 20:80, ambient), <1000 µg/mL. Moreover, the Solubility in data set [2] (1M HCl:acetone 33:67, ambient) was 2000 µg/mL; in data set [2] (1M HCl:acetone 50:50, ambient) it was 4000 µg/mL; in data set [2] (1M HCl:acetone 60:40, ambient), 4000 µg/mL; in data set [2] (1M HCl:acetone 67:33, ambient) it was 6000 µg/mL; in data set [2] (setting [6]), 7000 µg/mL; in data set [2] (2.0M HCl, ambient), 4000 µg/mL. The Solubility in data set [2] (5.0M HCl, ambient) is 3000 µg/mL; in data set [2] (5.0M HCl:water 1:2, ambient), 7000 µg/mL; in data set [2] (HCl acidic aqueous acetone solvent mixtures, ambient temperature, visual estimate) it was 3000 to 7000 µg/mL; in data set [2] (Water, ambient), <7000 µg/mL; in data set [2] (Water:acetone 1:2, ambient), 3000 µg/mL; in data set [2] (Water:acetone 3:1, ambient) it was <3000 µg/mL.
